In patent US20090137565A1, “Method for treatment of movement disorders” (The Trustees of Columbia University in the City of New York, priority 2004, published 2009):

Assays:
[1] = Single-patient GHB trial: tolerability / adverse events; type: in vivo, human
Experimental: All office visits and the UMRS scale were performed by the supervisory physician. The patient came to the office for five visits, each separated by two weeks (time 0, 2 weeks, 4 weeks, 6 weeks and 8 weeks). At each visit, the physician examined the patient, and inquired about any adverse events. The physician performed the UMRS while the patient was videotaped. Xyrem® was dispensed by the physician at each visit.
At the initial visit the UMRS was performed and videotaped, 1 gm of GHB was administered by mouth, and they were monitored in the office for one hour. They then took 1 gm twice daily for two weeks, at which time they returned to the office. One hour after receiving 2 grams of GHB, the UMRS was performed and videotaped and for the next two weeks they took 2 grams twice daily. Two weeks later, the UMRS was performed and videotaped one hour after receiving 3 grams of GHB, and after two weeks of 3 grams twice daily, the same procedure was performed after receiving 4 grams in the office. After taking 4 grams twice daily for two weeks, they returned for UMRS videotaping, and the decision was made to continue the target dose of 4 gm twice daily.
The clinical trial was designed with a very slow titration schedule, in order to prevent possible side effects such as sedation, worsening of ataxia or orthostasis. Like most forms of myoclonus, posthypoxic myoclonus disappears during sleep and it is therefore necessary to administer the drug during waking hours in order to observe its effects.

[2] = Twenty-patient trial: side effects and tolerability; type: in vivo, human; conditions: twenty patients
Source text: Twelve men and 8 women enrolled. Results from patients #6, and #s 1, 2, 7, 12, and 13 were reported previously. Frucht, S. J., et al. Mov Disord 20:745-51 (2005); Frucht, S. J., et al. Mov Disord 20:1330-7 (2005). Mean age/symptom duration was 43.9 yrs/12.3 yrs (myoclonus) and 71.2 yrs/26.7 yrs (ET). Patients with myoclonus were examined and videotaped at each visit using the Unified Myoclonus Rating Scale (UMRS), and patients with ET were examined and videotaped using the modified Washington Heights Inwood Genetic Essential Tremor Rating Scale (WHIGET; Appendix 1). Frucht, S. J., et al. Mov Disord 20:1330-7 (2005). After initial baseline examination and videotaping, patients took 1 gm of sodium oxybate by mouth (2 ml of the standard 0.5 gm/ml solution dissolved in 60 ml of water), and one hour later the videotaped examination was repeated. Patients were maintained on a dose of 1 gm T.I.D. (taken before meals) until their next office visit two weeks later, when the examination and videotaping were repeated one hour after receiving 1.5 gm of sodium oxybate. Subsequent visits and dose titrations at two-week intervals were repeated until the maximum dose was reached (3 gm T.I.D), patients were satisfied with the results of treatment, or until they developed side effects that they viewed as troublesome. Dosing for patients #1, 2, 6, 7, 12, and 13 was slightly different (1 gm BID, with dose increments of 2 gm to maximum dose of 4 gm BID), but office visits and videotaping protocol were otherwise identical.

[3] = tested on: ethanol-responsive essential tremor; test: Five-patient open-label trial of sodium oxybate, blinded WHIGET tremor rating (patients #4, 5); type: in vivo, human; conditions: for WHIGET TOTAL SUSTENTION score: range 0-6; for Rx effect, WHIGET TOTAL ACTION (improvement in tremor): listed as sodium oxybate, monosodium salt
Source text: Five patients were enrolled in a trial from the Movement Disorders Division of Columbia University Medical Center during the fall of 2004. All patients were afflicted with hyperkinetic movement disorders that responded to ethanol (defined as a noticeable change to the patient), and all were refractory to treatment with conventional medications or could not tolerate them. The Medical Center's Institutional Review Board approved the trial, and written and verbal informed consent were obtained from all patients prior to enrollment.
The dose and timing of all other drugs were kept constant throughout the trial, and patients were not withdrawn from other medications. Patients #1-3 were examined and videotaped using the Unified Myoclonus Rating Scale (UMRS), and patients #4 and 5 were examined and videotaped using the Washington Heights Inwood Tremor Rating Scale (WHIGET) (see Appendix I). Frucht S. J., et al. Adv Neurol 89:361-76 (2002); Louis, E. D., et al. Mov Disord 16:89-93 (2001).
Side effects were defined as either minor or serious (leading to hospitalization) using good clinical practice standards (www.who.int/medicines/library/par/ggcp/GCPGuidePharmatrials), and patients were asked to report side effects at each visit. After initial examination and videotaping, patients were given 1 gm of sodium oxybate by mouth (2 ml of the standard 0.5 gm/ml solution dissolved in 60 ml of water). One hour later, the senior author repeated the examination and videotaping. […] After two weeks taking 2 gm twice daily, the procedure was repeated after a 3 gm office dose, and finally two weeks after receiving 3 gm twice daily, the procedure was repeated after a 4 gm office dose. The maximum dose allowed in the trial was 4 gm twice daily. Patients and the senior author determined at each visit whether or not to proceed to the next dose level, based principally on their ability to tolerate the most recent dose regimen. After deciding on a maximum tolerated dose, patients received a dose in the office 0.5 gm less and the examination was videotaped.
The entire videotape segments and patient-writing samples from each visit were copied, and were blinded to trial order and identifying features, and were randomly ordered for review using a random number table. A movement disorder expert blinded to trial design and dose schedule, scored each videotape. Sub-scores for each visit were calculated as described previously. Frucht S. J., et al. Adv Neurol 89:361-76 (2002). We modified section 5 of the UMRS in which functional performance (pouring water, using a soup spoon) is performed only with the dominant arm (section V). […] This increased the maximum score of section 5 of the UMRS from 20 to 28.

[4] = metabolized to carbon dioxide and water; cited from earlier work

Structure (SMILES): O=C([O-])CCCO.[Na+] [GHB, 4-hydroxybutanoic acid monosodium salt]
- adverse effect reported by patient ([1]; after the first 1 gm dose): slight dizziness
- tolerability ([1]; divided doses during the day): well tolerated
- sedation ([1]; two daytime doses of 4 gm, concurrent clonazepam and levetiracetam): without significant sedation
- dose titration limited by ataxia [2]: 20%
- dose titration limited by sedation [2]: 60%
- mild, transient side effect: dizziness [2]: 35%
- mild, transient side effect: emotionality [2]: 20%
- mild, transient side effect: headache [2]: 20%
- mild, transient side effect: nausea [2]: 10%
- tolerability of daytime dosing [2]: acceptable
- WHIGET TOTAL ACTION score ([3]; patient 4, 1 gm, range 0-40, 0 gm score 19.5): 10
- WHIGET TOTAL SUSTENTION score ([3]; patient 4, 1.5 gm, 0 gm score 2.5): 0.5
- WHIGET TOTAL ACTION score ([3]; patient 4, 1.5 gm, range 0-40, 0 gm score 19.5): 4
- WHIGET TOTAL SUSTENTION score ([3]; patient 4, 2 gm, 0 gm score 2.5): 0
- WHIGET TOTAL ACTION score ([3]; patient 4, 2 gm, range 0-40, 0 gm score 19.5): 5
- Rx effect, WHIGET TOTAL ACTION (improvement in tremor) ([3]; patient 4): 79%
- WHIGET TOTAL ACTION score ([3]; patient 5, 1 gm, 0 gm score 23): 19
- WHIGET TOTAL ACTION score ([3]; patient 5, 1.5 gm, 0 gm score 23): 13.5
- WHIGET TOTAL SUSTENTION score ([3]; patient 5, 1.5 gm, 0 gm score 4): 2.5
- WHIGET TOTAL ACTION score ([3]; patient 5, 2 gm, 0 gm score 23): 12
- WHIGET TOTAL SUSTENTION score ([3]; patient 5, 2 gm, 0 gm score 4): 3
- Rx effect, WHIGET TOTAL ACTION (improvement in tremor) ([3]; patient 5): 48%
- Blinded rating of the severity of torticollis ([3]; patient #4, 1 gm twice-daily dose, before: moderate): mild
- kinetic tremor amplitude ([3]; patient #4, after 2 gm): markedly diminished
- kinetic tremor amplitude ([3]; patient #5, after 2 gm): the amplitude has diminished
- active metabolites [4]: has no active metabolites
